Converted amounts (≈) assume the structure as drawn. Like-named read-outs stand apart in the source and are kept apart here.

The nature of data set [1]: Determination of lipophilicity by RP-HPLC (log k). Particulars: RP-HPLC capacity factor, MeOH 70% / H2O 30%, C18, 30 °C.
Protocol: Log k was determined using an Agilent Technologies 1200 SL liquid chromatograph with Diode-array Detector SL G1315C (Agilent Technologies Inc., Colorado Springs, CO, USA), with pre-column ZORBAX XDB-C18 5 μm, 4 mm × 4 mm, Part No. 7995118-504 (Agilent Technologies Inc.) and column ZORBAX Eclipse XDB-C18 5 μm, 4.6 mm × 250 mm, Part No. 7995118-585 (Agilent Technologies Inc.). The separation process was controlled by Agilent ChemStation, version B.04.02, extended by a spectral module (Agilent Technologies Inc.). The mobile phase consisted of MeOH (HPLC grade, 70%) and H2O (HPLC-Milli-Q Grade, 30%).
The flow rate was 1.0 mL/min, samples were injected in a volume of 20 μL, and the column temperature was 30 °C. A value of 210 nm as the detection wavelength and 270 nm as the monitor wavelength were used. Retention times (tR) were measured in minutes. The dead time of the system (tD) was determined as the retention time of the KI methanol solution. Capacity factors k for individual compounds were calculated according to the formula k = (tR − tD)/tD. Log k, calculated from the capacity factor k, as used as the lipophilicity index converted to log scale.
For data set [2], the system named is Staphylococcus epidermidis H 6966/08. Put plainly: Antibacterial microdilution broth method. The following applies: read-out: MIC after 24 h S. epidermidis. Format: cell-based. How it is done:
(§1) Microdilution broth method. Antibacterial evaluation was performed against eight bacterial strains from the Czech Collection of Microorganisms (Brno, Czech Republic) (Staphylococcus aureus CCM 4516/08, Escherichia coli CCM 4517, Pseudomonas aeruginosa CCM 1961) or clinical isolates from the Department of Clinical Microbiology, University Hospital and Faculty of Medicine in Hradec Králové, Charles University in Prague, Czech Republic (Staphylococcus aureus H 5996/08-methicilin resistant (MRSA), Staphylococcus epidermidis H 6966/08, Enterococcus sp. J 14365/08, Klebsiella pneumoniae D 11750/08, Klebsiella pneumoniae J 14368/08-ESBL positive). All strains were subcultured on Mueller-Hinton agar (MHA) (Difco/Becton Dickinson, Detroit, MI, USA) at 35 °C and maintained on the same medium at 4 °C. The compounds were dissolved in DMSO, and the antibacterial activity was determined in Mueller-Hinton liquid broth (Difco/Becton Dickinson), and buffered to pH 7.0. Controls consisted of medium and DMSO alone. […] The minimum inhibitory concentration (MIC), defined as the minimum concentration to prevent the visible growth compared to control, was determined after 24 and 48 h of static incubation at 35 °C. The standards were neomycin, bacitracin, penicillin G, ciprofloxacin, and phenoxymethylpenicillin.
In general terms: In broth dilution the organism is exposed to a series of concentrations in liquid medium.

The test system of data set [3] is Staphylococcus aureus H 5996/08-methicilin resistant (MRSA). Put plainly: Antibacterial microdilution broth method. It is filed as cell-based. The following applies: 24 h, read-out: MIC after 24 h MRSA. How it is done: as §1
For data set [4], the system named is Staphylococcus aureus CCM 4516/08. Nature of the data set: Antibacterial microdilution broth method. It is filed as cell-based. Particulars: CCM4516, 24 h, read-out: MIC after 24 h S. aureus. How it is done:
as §1

Data set [5] has as its system Mycobacterium smegmatis CCM 4622 (ATCC 607). Put plainly: Antimycobacterial screening, microdilution broth panel method with resazurin. It is filed as cell-based. Particulars: Mycolicibacterium smegmatis, 48 h + 4 h. As to the method:
An antimycobacterial assay was performed with fast growing Mycobacterium smegmatis CCM 4622 (ATCC 607) from the Czech Collection of Microorganisms (Brno, Czech Republic). The technique used for activity determination was a microdilution broth panel method using 96-well microtitration plates. The culturing medium was Middlebrook 7H9 (MB) broth (Sigma-Aldrich), enriched with 0.4% of glycerol (Sigma-Aldrich) and 10% of Middlebrook OADC growth supplement (Himedia, Mumbai, India). Tested compounds were dissolved in DMSO (Sigma-Aldrich), and the MB broth was then added to obtain a concentration of 2000 μg·mL^−1. Standards used for activity determination were isoniazid (INH), rifampicin (RIF), and ciprofloxacin (CPX) (Sigma-Aldrich). Final concentrations were reached by binary dilution and the addition of mycobacterial suspension, and were set as 500, 250, 125, 62.5, 31.25, 15.625, 7.81, and 3.91 μg·mL^−1, except for the standards of ciprofloxacin and rifampicin, where the final concentrations were 12.5, 6.25, 3.125, 1.56, 0.78, 0.39, 0.195, and 0.098 μg·mL^−1. […] Plates were also sealed with polyester adhesive film and incubated in the dark at 37 °C, without agitation. The addition of 0.01% solution of resazurin sodium salt followed after 48 h. This stain was prepared by dissolving resazurin sodium salt (Sigma-Aldrich) in deionised water, producing a 0.02% solution. Then, a 10% aqueous solution of Tween 80 (Sigma-Aldrich) was prepared. Both liquids were mixed up making use of the same volumes and filtered through a syringe membrane filter. Microtitration panels were then incubated for a further 4 h. Antimycobacterial activity was expressed as the minimal inhibition concentration (MIC) and the value was read on the basis of stain colour change (blue colour—active compound; pink colour—not active compound). […] All experiments were conducted in duplicate.

For data set [6], the system named is Mycobacterium tuberculosis H37Rv. Nature of the data set: Microplate Alamar Blue Assay (MABA), microdilution panel method. It is filed as cell-based. A general note: The colour change of resazurin is a common sign of viable cells or microbes.
The nature of data set [7]: Cytotoxicity assay, CellTiter 96 Aqueous One Solution. Format: cell-based. The following applies: human, HepG2 cells; for IC50 at 24 h: 24 h exposure. How it is done:
The human liver hepatocellular carcinoma cell line HepG2 (passage 35–36), purchased from Health Protection Agency Culture Collections (ECACC, Salisbury, UK), was routinely cultured in Minimum Essential Eagle Medium MEM (Sigma-Aldrich) supplemented with 10% fetal bovine serum (PAA Laboratories GmbH, Pasching, Austria), 2mM L-glutamine solution (Sigma-Aldrich), and 1% non-essential amino acid solution (Sigma-Aldrich), in a humidified atmosphere containing 5% CO2 at 37 °C.
For subculturing, the cells were harvested after trypsin/EDTA (Sigma-Aldrich) treatment at 37 °C. To evaluate the cytotoxicity, the HepG2 cells treated with the tested substances were used as experimental groups, whereas untreated HepG2 cells served as control groups.
The HepG2 cells were seeded in a density of 1 × 10^4 cells per well on a 96-well plate. The following day (24 h after seeding), they were treated with tested substances dissolved in DMSO (maximal incubation concentration of DMSO was 1%). […] The treatment was carried out in a humidified atmosphere containing 5% CO2 at 37 °C, in triplicate, for 24 h. The controls representing 100% cell viability, 0% cell viability (the cells treated with 10% DMSO), no-cell controls, and vehiculum controls were incubated in triplicate, simultaneously. After 24 h exposure, the reagent from the kit CellTiter 96® Aqueous One Solution Cell Proliferation Assay (Promega) was added, according to the recommendation of the manufacturer. After 2 h incubation at 37 °C in humidified, 5% CO2 atmosphere, the absorbance was recorded at 490 nm. Inhibitory curves were constructed for each compound, plotting incubation concentrations vs. percentage of absorbance relative to untreated control. The standard toxicological parameter IC50 was calculated by a nonlinear regression analysis of the inhibitory curves using GraphPad Prism software (version 6, GraphPad Software, Inc., La Jolla, CA, USA).

In data set [8] the test system is M. avium ssp. avium Chester CNCTC My 80/72. Put plainly: Microplate Alamar Blue Assay (MABA), microdilution panel method. Format: cell-based. Particulars: Mycobacterium avium.
Data set [9] has as its system M. kansasii Hauduroy CNCTC My 235/80. The description is as above. It is filed as cell-based. The following applies: Mycobacterium kansasii.
[10] abbreviates: Staphylococcus epidermidis, H6966/08, 24 h.

The term MIC denotes the smallest concentration in the dilution series that meets the test's criterion for growth inhibition. One may read the IC50 as the concentration needed to halve the response being measured. Read a high IC50 as a need for much substance. With `COc1ccc(CNC(=O)c2nccnc2NCc2ccc(OC)cc2)cc1` [Compound 3a, N-(4-Methoxybenzyl)-3-((4-methoxybenzyl)amino)pyrazine-2-carboxamide], the Log k in data set [1] is listed as 0.981. Besides, the MIC was greater than 500 µM in data set [2] (setting [10]); 62.5 µM (≈ 23.7 µg/mL) in [3] (Staphylococcus aureus, MRSA); 15.6 µM (≈ 5.91 µg/mL) in data set [4]; greater than 500 µg/mL in [5]; 50 µg/mL in data set [6] (pH 6.6); 132 µM in data set [6] (value in parentheses). In data set [7], the half-inhibitory concentration (IC50) at 24 h is greater than 100 µM.
In data set [1], `O=C(NCc1ccc(Cl)c(Cl)c1)c1nccnc1Cl` [Compound 9, 3-Chloro-N-(3,4-dichlorobenzyl)pyrazine-2-carboxamide] came in with a Log k of 0.309. The MIC in data set [2] (setting [10]) was determined as 31.2 µM (≈ 9.89 µg/mL); in data set [3] (Staphylococcus aureus, MRSA), 250 µM (≈ 79.1 µg/mL); in data set [4], 62.5 µM (≈ 19.8 µg/mL); in data set [5] it was 250 µg/mL; in [6] (pH 6.6), 100 µg/mL.
The compound `Cc1ccc(CNC(=O)c2nccnc2Cl)cc1` [Compound 2, 3-Chloro-N-(4-methylbenzyl)pyrazine-2-carboxamide] gave a Log k in data set [1] of 0.033. For the same compound, the MIC is 500 µM (≈ 131 µg/mL) in data set [2] (setting [10]); greater than 500 µM in data set [3] (Staphylococcus aureus, MRSA); 125 µM (≈ 32.7 µg/mL) in data set [4]; greater than 500 µg/mL in data set [5]; greater than 100 µg/mL in data set [6] (pH 6.6).
Regarding `O=C(NCc1ccc(C(F)(F)F)cc1)c1nccnc1NCc1ccc(C(F)(F)F)cc1` [Compound 13a, N-(4-(Trifluoromethyl)benzyl)-3-((4-(trifluoromethyl)benzyl)amino)pyrazine-2-carboxamide], the Log k in [1] is 1.593. Moreover, the MIC in data set [2] (setting [10]) was greater than 500 µM; in [3] (Staphylococcus aureus, MRSA), greater than 500 µM; in [4], 62.5 µM (≈ 28.4 µg/mL); in [5], greater than 500 µg/mL; in data set [6] (pH 6.6), greater than 100 µg/mL.
`O=C(NCc1ccc(Cl)c(Cl)c1)c1nccnc1NCc1ccc(Cl)c(Cl)c1` [Compound 9a, N-(3,4-Dichlorobenzyl)-3-((3,4-dichlorobenzyl)amino)pyrazine-2-carboxamide] displayed a Log k in [1] of 1.997. The MIC in [5] is greater than 500 µg/mL; in data set [6] (pH 6.6), 12.5 µg/mL; in data set [6] (value in parentheses), 27 µM. Further, in data set [7], the IC50 at 24 h was greater than 100 µM.
In data set [1], `O=C(NCc1ccccc1Cl)c1nccnc1Cl` [Compound 5, 3-Chloro-N-(2-chlorobenzyl)pyrazine-2-carboxamide] displayed a Log k of 0.033. Besides, the MIC in [2] (setting [10]) was 15.6 µM (≈ 4.41 µg/mL); in [3] (Staphylococcus aureus, MRSA), 500 µM (≈ 141 µg/mL); in [4], 7.81 µM (≈ 2.2 µg/mL); in data set [5], 250 µg/mL; in data set [6] (pH 6.6), greater than 100 µg/mL. The selectivity ratio at 24 h in data set [7] (HepG2 IC50 / MIC S. aureus, read-out: selectivity index, SI = IC50/MIC) was determined as 108. The IC50 at 24 h in data set [7] was determined as 847 µM.
Turning to `COc1ccc(CNC(=O)c2nccnc2Cl)c(OC)c1` [Compound 4, 3-Chloro-N-(2,4-dimethoxybenzyl)pyrazine-2-carboxamide], the Log k in data set [1] is on record as −0.095. Also, the minimal inhibitory concentration (MIC) is greater than 500 µM in data set [2] (setting [10]); greater than 500 µM in data set [3] (Staphylococcus aureus, MRSA); 125 µM (≈ 38.5 µg/mL) in [4]; greater than 500 µg/mL in [5]; greater than 100 µg/mL in data set [6] (pH 6.6).
Compound `COc1ccc(CNC(=O)c2nccnc2Cl)cc1` [Compound 3, 3-Chloro-N-(4-methoxybenzyl)pyrazine-2-carboxamide] returned a Log k in data set [1] of −0.202. Also, the MIC in data set [2] (setting [10]) is 250 µM (≈ 69.4 µg/mL); in [3] (Staphylococcus aureus, MRSA), 125 µM (≈ 34.7 µg/mL); in [4], 31.2 µM (≈ 8.68 µg/mL); in data set [5] it was 125 µg/mL; in data set [6] (pH 6.6) it was 25 µg/mL; in data set [6] (value in parentheses) it was 90 µM.
With `Cc1ccccc1CNC(=O)c1nccnc1NCc1ccccc1C` [Compound 1a, N-(2-Methylbenzyl)-3-((2-methylbenzyl)amino)pyrazine-2-carboxamide], the Log k in data set [1] came to 1.459. The MIC in data set [5] was greater than 500 µg/mL; in data set [6] (pH 6.6), 12.5 µg/mL; in data set [6] (value in parentheses), 36 µM. Moreover, the IC50 at 24 h in data set [7] is greater than 250 µM.
As for neomycin [reference compound], the MIC in data set [2] (24 h) is reported as 7.81 µM; in data set [3] it was 0.98 µM.
`NNC(=O)c1ccncc1` [INH, isoniazid, reference compound]: the MIC in data set [8] is 6.25 to 12.5 µg/mL (≈ 45.6 to 91.1 µM); in data set [5] it was 7.81 to 15.6 µg/mL; in data set [9], 3.13 to 12.5 µg/mL (≈ 22.8 to 91.1 µM); in data set [6] (pH 6.6), 0.2 µg/mL.
On to `CC1(C)S[C@@H]2[C@H](NC(=O)COc3ccccc3)C(=O)N2[C@H]1C(=O)O` [Penicillin V, phenoxymethylpenicillin, reference compound], for which the MIC in data set [2] (setting [10]) worked out at 3.9 µM (≈ 1.37 µg/mL); in data set [3] (Staphylococcus aureus, MRSA) it was 62.5 µM (≈ 21.9 µg/mL); in data set [4] it was 0.12 µM (≈ 0.042 µg/mL).
As to `O=C(NCc1ccc(Cl)cc1Cl)c1nccnc1Cl` [Compound 8, 3-Chloro-N-(2,4-dichlorobenzyl)pyrazine-2-carboxamide], in data set [1], the Log k was 0.375. Besides, the MIC was 125 µM (≈ 39.6 µg/mL) in data set [2] (setting [10]); 250 µM (≈ 79.1 µg/mL) in [3] (Staphylococcus aureus, MRSA); 125 µM (≈ 39.6 µg/mL) in [4]; 125 µg/mL in [5]; greater than 100 µg/mL in data set [6] (pH 6.6).
Regarding `O=C(NCc1ccc(Cl)cc1)c1nccnc1NCc1ccc(Cl)cc1` [Compound 7a, N-(4-Chlorobenzyl)-3-((4-chlorobenzyl)amino)pyrazine-2-carboxamide], in data set [1], the Log k is on record as 1.533. Also, the MIC in data set [8] is greater than 50 µg/mL; in [5], greater than 250 µg/mL; in data set [9] it was greater than 50 µg/mL; in data set [6] (pH 6.6), greater than 50 µg/mL.
In the case of `O=C(NCc1ccc(C(F)(F)F)cc1)c1nccnc1Cl` [Compound 13, 3-Chloro-N-(4-(trifluoromethyl)benzyl)pyrazine-2-carboxamide], the Log k in data set [1] came to 0.145. The MIC in [2] (setting [10]) is 62.5 µM (≈ 19.7 µg/mL); in data set [3] (Staphylococcus aureus, MRSA), 500 µM (≈ 158 µg/mL); in data set [4], 31.2 µM (≈ 9.87 µg/mL); in [5], greater than 500 µg/mL; in data set [6] (pH 6.6), greater than 100 µg/mL.

(Values after article PMC6155222, “3-Substituted N-Benzylpyrazine-2-carboxamide Derivatives: Synthesis, Antimycobacterial and Antibacterial Evaluation” (Molecules : A Journal of Synthetic Chemistry and Natural …, 2017).)
